Laboratory results published in US20260021186A1, “Fatty Acid-D-Amino Acid Peptides Conjugates as Anaplerotic Compounds for Use in Treating Propionic Acidemia, Methylmalonic Acidurias, and Energy Metabolic Disorders” (University of Pittsburgh - Of the Commonwealth System of …, priority 2022, published 2026).

Experiments:
Type in all cases: cell-based, human
[1] = tested on: propionic acidemia (PA) fibroblast cell line Fb900; test: Mitochondrial ROS production using MitoSOX Red; conditions: FIG. 15C; 180 and 640 μM, 72 h
Text: (§1) FIGS. 15A-15D are graphs showing the measurement of mitochondrial reactive oxygen species (ROS) production using MitoSOX Red as Superoxide indicator probe. FIG. 15A is a graph showing control fibroblast cell line FB826 treated with PMA010, PMA011, PMA019, and PMA020. FIG. 15B is a graph showing propionic acidemia (PA) patients' fibroblast cell linc Fb859 treated with PMA010, PMA011, PMA019, and PMA020. FIG. 15C is a graph showing propionic acidemia (PA) patients' fibroblast cells line Fb900 treated with PMA010, PMA011, PMA019, and PMA020. FIG. 15D is a graph comparing ROS production levels in response to treatment with PMA011 in Control fibroblast cell line (FB826), PA fibroblast cell line (Fb900), and glutaric acidemia II (GA II) patient fibroblast cell lines (Fb930, Fb961). Data are the average of readings from 3 replicate wells.
(§2) Measurement of mitochondrial ROS production using MitoSOX Red as superoxide indicator probe: control (Fb826), PA patient (Fb859, Fb900) and GA II patient (Fb930, Fb961) fibroblasts were grown in regular DMEM media containing glucose/pyruvate/L-glutamine until 85-90% confluency. The cells were harvested and seeded at a concentration of 25,000 cells/80 μl (n=3) in cell culture treated black wall 96 well microplate with clear bottom in regular DMEM media containing glucose/pyruvate/L-glutamine and incubated overnight at 37° C. in a 5% CO2 incubator. Following day, the culture media was replaced in designated wells with the following for 72 h: 150 μl regular DMEM (Glucose+10% FBS+sodium pyruvate+L-glutamine+0.5 mM carnitine). 150 μl of Regular DMEM containing experimental compounds (180 and 640 μM) PMA010 or PMA011 or PMA 019 and (640 μM) PMA020 in control and propionic acidemia patient fibroblasts. 150 μl of regular DMEM containing experimental compounds (600 and 1200 μM) PMA011 in Fb930 and (1200 μM) PMA011 in Fb961 GA II patient fibroblast. After 72 h incubation the wells were washed twice with 150 μL of Seahorse XFDMEM base media and in respective designated wells the following Assay buffer (150 μL of seahorse XFDMEM base media containing glucose, sodium pyruvate and Glutamine) was used along with 5 μM MitoSOX reagent and incubated at 37° C. non-CO2 incubator for 15 minutes protected from light. After 15 minutes incubation the cells were washed twice with 150 μL of seahorse XFDMEM base media and replaced with measurement buffer, which is same as the wash buffer. The fluorescence was monitored with excitation at 520 nm and emission at 580 nm. Finally, cells were lysed, and protein content was determined. Data is normalized to protein concentration and fluorescence is reported as MitoSOX Red (AFU)/mg protein.

[2] = tested on: control fibroblast cell line FB826; test: Mitochondrial ROS production using MitoSOX Red; conditions: FIG. 15A; 180 and 640 μM, 72 h
Text: as §1, §2

PA patient cells, Fb859 = test: Measurement of mitochondrial respiration (Seahorse XF MitoStress test, OCR); conditions: FIGS. 12A-12D; 30 μM and 90 μM for 72 h
Method: Measurement of Mitochondrial Respiration Seahorse: Fb859 cells were grown in regular DMEM media until 85-90% confluency. The cells were harvested and seeded at a concentration of 25,000 cells/80 μl (n=8 replicates) in poly-D lysine coated XFe seahorse 96well plate in regular DMEM media and incubated overnight at 37° C. in a 5% CO2 incubator. Following day, the culture media was replaced in designated wells with the following for 72 h:180 μl of Specialty Media A (seahorse XFDMEM base media+10% fat stripped FBS+Glucose+sodium pyruvate+L-glutamine+0.5 mM carnitine). 180 μl of Specialty Media B (scahorse XFDMEM base media+10% stripped FBS+0.5 mM carnitine and no added glucose, sodium pyruvate or glutamine). 180 μl of Specialty media B containing experimental compounds. After 72 h incubation the Specialty media A & B was replaced in respective designated wells with 180 μL Seahorse XF DMEM base media containing glucose, sodium pyruvate. […] OCR was determined (Seahorse XF MitoStress test). Finally, cells were lysed, and protein content was determined. […]
Measurement of Mitochondrial Respiration: Control Fb826 and Patient Fb859 cells were grown in regular DMEM media without adding extra glutamine until 85-90% confluency. […] Oxygen consumption rate (OCR) was determined (Seahorse XF MitoStress test). Finally, cells were lysed, and protein content was determined. […]

## C[C@@H](NC(=O)CCCCC(=O)O)C(=O)N[C@H](Cc1c[nH]cn1)C(=O)O [PMA010, 6-(((R)-1-(((R)-1-carboxy-2-(1H-imidazol-4-yl)ethyl)amino)-1-oxopropan-2-yl)amino)-6-oxohexanoic acid]
[1]
  ROS detected (MitoSOX Red): significant decrease in ROS
[2]
  ROS detected (MitoSOX Red): significant decrease in ROS
PA patient cells, Fb859
  oxygen consumption parameters compared to individual components D-Serine and D-Histidine: improved
